Reference: patent publication US10017523B2, “NAMPT inhibitors and methods” (Genzyme Corporation, priority 2014, dated 2018)

Legend:
[1] = system: B-cell acute lymphocytic leukemia (SUP-B15); assay: Anti-proliferative activity on SUP-B15 cell line; format: cell-based; settings: Homo sapiens, SUP-B15, 72 h, CellTiterGlo
Method: (§1) Leukemia/Lymphoma cell lines (ATCC) were diluted in vendor-recommended media and incubated in the absence or presence of inhibitor for 72 hours at 37° C./5% CO2 prior to viability determination using CellTiterGlo (Promega) per manufacturer's instruction. The human cell lines studied include acute T-cell leukemia (JURKAT), chronic myelogenous leukemia (K562), and B-cell acute lymphocytic leukemia (NALM6 and SUP-B15).

[2] = system: chronic myelogenous leukemia (K562); assay: Anti-proliferative activity on K562 cell line; format: cell-based; settings: Homo sapiens, K562, 72 h, CellTiterGlo
Method: as §1

[3] = system: B-cell acute lymphocytic leukemia (NALM6); assay: Anti-proliferative activity on NALM6 cell line; format: cell-based; settings: Homo sapiens, NALM-6, 72 h, CellTiterGlo
Method: as §1

[4] = system: primary human T cells; assay: Anti-proliferative activity on T cells (CD3/CD28 stimulated, CellTiterGlo); format: cell-based; settings: T-cell, 72 h, CD3/CD28 beads
Method: (§2) Fresh primary human T cells obtained from Analytical Biological Services (Wilmington, Del.) were diluted to 1×10^^6 cells per ml in AIM-V medium (Invitrogen), and stimulated with CD3/CD28 beads (Invitrogen) in the absence or presence of inhibitor for 72 hours at 37° C./5% CO2 prior to viability determination using CellTiterGlo (Promega) per manufacturer's instruction.
(§3) The 50% inhibitory concentration (IC50) is the concentration at which 50% of the maximal activity was inhibited.

[5] = system: primary human B cells; assay: Anti-proliferative activity on B cells (anti-IgM stimulated, CellTiterGlo); format: cell-based; settings: B-cell, 72 h, anti-IgM 10 ug/ml
Method: as §2, with “human B” for “human T”, “with anti-IgM (10 ug/ml) (KPL)” for “with CD3/CD28 beads (Invitrogen)”
as §3

[6] = system: acute T-cell leukemia (JURKAT); assay: Anti-proliferative activity on JURKAT cell line; format: cell-based; settings: Homo sapiens, 72 h, CellTiterGlo
Method: as §1

[7] = target: T1, Recombinant NAMPT enzyme (Homo sapiens, UniProt P43490); assay: Inhibition of NAMPT enzymatic activity; format: biochemical; settings: 6 hours at 37° C., NMN product detected
T1 construct: purchased MBL
Method: Recombinant NAMPT enzyme (MBL) was briefly pre-incubated in the absence or presence of inhibitor followed by addition of nicotinamide. Enzymatic reaction was allowed to proceed for 6 hours at 37° C. Reaction was terminated and NMN reaction product detected using the method as described in: Zhang R Y, Qin Y, Lv X Q, Wang P, Xu T Y, Zhang L, Miao C Y., Anal. Biochem. 2011 May 1; 412(1):18-25.
as §3

T1 sequence (P43490 whole entry): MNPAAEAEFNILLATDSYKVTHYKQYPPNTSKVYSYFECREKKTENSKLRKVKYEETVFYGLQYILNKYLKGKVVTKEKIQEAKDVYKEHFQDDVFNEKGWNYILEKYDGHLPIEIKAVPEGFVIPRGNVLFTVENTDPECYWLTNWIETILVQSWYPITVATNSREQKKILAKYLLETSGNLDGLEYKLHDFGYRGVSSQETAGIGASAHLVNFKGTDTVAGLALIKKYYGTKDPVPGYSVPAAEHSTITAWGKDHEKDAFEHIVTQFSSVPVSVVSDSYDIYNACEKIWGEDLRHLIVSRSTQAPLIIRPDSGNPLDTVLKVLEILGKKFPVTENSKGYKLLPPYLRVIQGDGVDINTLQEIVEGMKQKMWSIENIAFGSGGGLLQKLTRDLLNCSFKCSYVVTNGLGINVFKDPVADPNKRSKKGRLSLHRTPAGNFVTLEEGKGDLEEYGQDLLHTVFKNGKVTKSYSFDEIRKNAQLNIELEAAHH

Compound	IC50 [1]	IC50 [2]	IC50 [3]	IC50 [4]	IC50 [5]	IC50 [6]	IC50 [7]
CC(C)N1CCC2(CC1)Oc1ccc(-c3ccc(C(=O)NCc4cncs4)cn3)cc1C(=O)N2C [6-(1′-isopropyl-3-methyl-4-oxo-3,4 dihydrospiro[benzo[e][1,3]oxazine-2,4′-piperidin]-6-yl)-N-(thiazol-5-ylmethyl)nicotinamide]	2.14 nM	75.7 nM	17.6 nM	1550 nM	25.4 nM	33 nM	107 nM
CC(C)N1CCC2(CC1)Oc1ccc(-c3ccc(C(=O)NCc4cnn(C)c4)cn3)cc1C(=O)N2C [6-(1′-isopropyl-3-methyl-4-oxo-3,4-dihydrospiro[benzo[e][1,3]oxazine-2,4′-piperidin]-6-yl)-N-((1-methyl-1H-pyrazol-4-yl)methyl)nicotinamide]	20.9 nM	629 nM	122 nM	6110 nM	97.7 nM	181 nM	15 nM
Cc1cc(CNC(=O)c2ccc(-c3ccc4c(c3)C(=O)NC3(CCN(C(C)C)CC3)O4)nc2)on1 [6-(1′-isopropyl-4-oxo-3,4-dihydrospiro[benzo[e][1,3]oxazine-2,4′-piperidin]-6-yl)-N-((3-methylisoxazol-5-yl)methyl)nicotinamide]	3.19 nM	876 nM	17.1 nM	14600 nM	29.2 nM	24.8 nM	3 nM
CC(C)N1CCC2(CC1)CC(=O)c1cc(-c3ccc(C(=O)NCc4cnn(C)c4)cn3)ccc1O2 [6-(1′-isopropyl-4-oxospiro[chroman-2,4′-piperidin]-6-yl)-N-((1-methyl-1H-pyrazol-4-yl)methyl)nicotinamide]	14.1 nM	304 nM	102 nM	5590 nM	59.8 nM	209 nM	14 nM
CCCN1CCC2(CC1)CC(=O)c1cc(-c3ccc(C(=O)NCc4cncs4)cn3)ccc1O2 [6-(4-oxo-1′-propylspiro[chroman-2,4′-piperidin]-6-yl)-N-(thiazol-5-ylmethyl)nicotinamide]	1.89 nM	35.7 nM	11.9 nM	1080 nM	15.2 nM	16.3 nM	66.7 nM
CC(C)N1CCC2(CC1)CC(=O)c1cc(-c3ccc(C(=O)NCc4cccnc4F)cc3)ccc1O2 [N-((2-fluoropyridin-3-yl)methyl)-4-(1′-isopropyl-4-oxospiro[chroman-2,4′-piperidin]-6-yl)benzamide]	1.47 nM	2.94 nM	3.48 nM	5790 nM	9.9 nM	3.66 nM	1 nM
CCc1cc(CNC(=O)c2ccc(-c3ccc4c(c3)C(=O)CC3(CCN(C(C)C)CC3)O4)cc2)on1 [N-((3-ethylisoxazol-5-yl)methyl)-4-(1′-isopropyl-4-oxospiro[chroman-2,4′-piperidin]-6-yl)benzamide]	2.3 nM	44.7 nM	7.42 nM	1720 nM	21.3 nM	12.2 nM	1 nM
CCCN1CCC2(CC1)CC(=O)c1cc(-c3ccc(C(=O)NCc4cc(C)no4)cc3)ccc1O2 [N-((3-methylisoxazol-5-yl)methyl)-4-(4-oxo-1′-propylspiro[chroman-2,4′-piperidin]-6-yl)benzamide]	2.07 nM	25 nM	6.74 nM	677 nM	12.9 nM	7.78 nM	2 nM
CCCN1CCC2(C=Cc3cc(-c4ccc(C(=O)NCc5cc(C)no5)cn4)ccc3O2)CC1 [N-((3-methylisoxazol-5-yl)methyl)-6-(1′-propylspiro[chromene-2,4′-piperidin]-6-yl)nicotinamide]	1.04 nM	25.8 nM	3.63 nM	342 nM	4.4 nM	6.38 nM	1 nM
CCCN1CCC2(CC1)CC(=O)c1cc(-c3ccc(C(=O)NCc4cc(C)no4)cn3)ccc1O2 [N-((3-methylisoxazol-5-yl)methyl)-6-(4-oxo-1′-propylspiro[chroman-2,4′-piperidin]-6-yl)nicotinamide]	0.706 nM	19.4 nM	2.25 nM	731 nM	5.9 nM	3.54 nM	1 nM
CC(C)N1CCC2(CC1)Oc1ccc(-c3ccc(C(=O)NCc4cncc(F)c4)cc3)cc1C(=O)N2C [N-((5-fluoropyridin-3-yl)methyl)-4-(1′-isopropyl-3-methyl-4-oxo-3,4-dihydrospiro[benzo[e][1,3]oxazine-2,4′-piperidin]-6-yl)benzamide]	0.606 nM	28.3 nM	3.56 nM	1000 nM	6 nM	7.04 nM	3.5 nM
CC(C)N1CCC2(CC1)CC(=O)c1cc(-c3ccc(C(=O)NCc4cncc(F)c4)cc3)ccc1O2 [N-((5-fluoropyridin-3-yl)methyl)-4-(1′-isopropyl-4-oxospiro[chroman-2,4′-piperidin]-6-yl)benzamide]	1.1 nM	78.8 nM	8.8 nM	3300 nM	7.9 nM	20.4 nM	5.5 nM
CCCN1CCC2(CC1)CC(=O)c1cc(-c3ccc(C(=O)NCc4cncc(F)c4)cc3)ccc1O2 [N-((5-fluoropyridin-3-yl)methyl)-4-(4-oxo-1′-propylspiro[chroman-2,4′-piperidin]-6-yl)benzamide]	0.556 nM	18.7 nM	3.15 nM	1970 nM	7.4 nM	7.07 nM	3 nM
COCCCCN1CCC2(CC1)CC(=O)c1cc(-c3ccc(C(=O)NCc4cncc(F)c4)cn3)ccc1O2 [N-((5-fluoropyridin-3-yl)methyl)-6-(1′-(4-methoxybutyl)-4-oxospiro[chroman-2,4′-piperidin]-6-yl)nicotinamide]	0.847 nM	29.4 nM	4.83 nM	5450 nM	10.9 nM	12.1 nM	4.2 nM
CCCCONC(=O)c1ccc(-c2ccc3c(c2)C(=O)CC2(CCN(C(C)C)CC2)O3)nc1 [N-butoxy-6-(1′-isopropyl-4-oxospiro[chroman-2,4′-piperidin]-6-yl)nicotinamide]	3.02 nM	282 nM	15.6 nM	7370 nM	45 nM	23.3 nM	1.4 nM
